Test results taken from patent US12427192B2, “Water soluble adjuvant and composition containing same” (Sumitomo Pharma Co., Ltd., priority 2019, dated 2025).

Columns and labels:
[1] = tested on: HLA-A*02:01 transgenic mouse; assay: Test 17: in vivo adjuvant activity, liposome formulation 2, IFNγ ELISPOT; details: added to cocktail vaccine 1 (liposome formulation 2); 0.4 nmol per body, twice; FIG. 20 and 21
Method: Evaluation of In Vivo Adjuvant Activity in HLA-A*02:01 Transgenic Mouse
The in vivo adjuvant activity of the compound of Example 1 was evaluated in the following procedure.
To a vaccine (liposome formulation 2) comprising Compound of formula 4 prepared in Reference example 8 and Peptide SEQ ID No. 3 prepared in Reference example 3 (hereinafter, referred to as “cocktail vaccine 1”) was added the compound prepared in Example 1 to prepare a vaccine. The vaccine was administered to a HLA-A*02:01 transgenic mouse, and the adjuvant activity of the vaccine was evaluated by the method of testing antigen-specific CTL induction.
For example, the above liposome formulation 2 was prepared as follows. 42.66 mg of sphingomyelin and 15.47 mg of cholesterol were dissolved in t-butyl alcohol, and the mixture was lyophilized. […]
Cocktail vaccine 1 was injected to mice intradermally at the tail base area in an amount for administering 500 μg of Compound of formula 4 per body and 375 μg of Peptide SEQ ID No. 3 per body. […] Then, after removal of the supernatant from the wells, stained spots on the ELISPOT plate were counted.

[2] = tested on: HLA-A*02:01/HLA-DRB1*01:01 transgenic mouse; assay: Test 19: in vivo adjuvant activity (CTL and helper T-cell induction), cocktail vaccine n, IFNγ ELISPOT; details: added to cocktail vaccine n, 0.04 nmol or 0.4 nmol per body, twice
Method: Evaluation of In Vivo Adjuvant Activity in HLA-A*02:01/HLA-DRB1*01:01 Transgenic Mouse
The in vivo adjuvant activity of the compound of Example 1 was evaluated in the following procedure. To a cocktail vaccine comprising Peptide SEQ ID No. 1 prepared in Reference example 1 and Peptide SEQ ID No. 17 prepared in Reference example 20 with a preliminarily-emulsified composition (hereinafter, referred to as “cocktail vaccine n”) was added the compound prepared in Example 1 to prepare each vaccine. The vaccine was administered to a HLA-A*02:01/HLA-DRB1*01:01 transgenic mouse (C57BL/6CrHLA-A2.1DR1), and the adjuvant activity of each vaccine was evaluated by the method of testing antigen-specific CTL and antigen-specific helper T-cell induction. Peptide SEQ ID No. 17 is a helper peptide derived from WT1 protein.
Specifically, Peptide SEQ ID No. 1 and Peptide SEQ ID No. 17 were dissolved in DMSO, and then diluted with water for injection to concentrations of Peptide SEQ ID No. 1 of 2 mg/mL and Peptide SEQ ID No. 17 of 4 mg/mL. The prepared peptide dilution was mixed with an equal volume of the preliminary emulsified composition prepared like Test 4 to give an emulsified product, cocktail vaccine n. […] Then, after removal of the supernatant from the wells, stained spots on the ELISPOT plate were counted.

[3] = Spleen weight in the mice tested in Tests 11-18; assay type: in vivo, mouse

In the case of `CCCCCNc1nc(N)nc(C)c1Cc1ccc(CN(C)CCOCCOCCOCCOCCO)cc1OC` [Example 1, 1-(4-{[2-amino-4-methyl-6-(pentylamino)pyrimidin-5-yl]methyl}-3-methoxyphenyl)-2-methyl-5,8,11,14-tetraoxa-2-azahexadecan-16-ol·trifluoroacetate], the “CTL counts responsive to Peptide SEQ ID No. 1 or SEQ ID No. 4 compared with adding no compound” value [1] is reported as “more”, the “CTL counts responsive to Peptide SEQ ID No. 1 compared with adding no compound” value ([2]; FIG. 23) is reported as “more” and the “helper T-cell counts responsive to Peptide SEQ ID No. 17 compared with adding no compound” value ([2]; FIG. 24) is reported as “more”. For the same compound, the spleen weight ([3]; mice tested in Tests 11-13 (emulsified compositions), FIG. 26) was “does not induce a pronounced increase of spleen weight”, the spleen weight ([3]; mice tested in Tests 14 and 15 (oily suspension, hydrogel), FIG. 27) was “does not induce a pronounced increase of spleen weight” and the spleen weight ([3]; mice tested in Tests 16-18 (liposome formulations), FIG. 28) was “does not induce a pronounced increase of spleen weight”.
